The nature of this experiment: In vitro binding affinity towards 5-hydroxytryptamine 1D receptor beta by using [3H]5-HT as radioligand.

Structures are written as SMILES.

As usually defined, the Ki is a measure of affinity in units of concentration, obtained from inhibition or displacement. Take `CCCNC1CCc2cccc(OS(=O)(=O)C(F)(F)F)c2C1` (stereo unspecified) [Trifluoro-methanesulfonic acid 7-propylamino-5,6,7,8-tetrahydro-naphthalen-1-yl ester]: the Ki was 0.169 µM.

The values above are taken from BindingDB's records for doi:10.1021/jm00008a010 (1995).
